# From the supplement of paper PMC11061612
# Tests used:
# [1] = system: RVH-421 (Melanoma); experiment: Bliss excess, mean over the matrix (fraction); higher = more synergy
# Summary of the method: (§1)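 Bliss excess equals the observed combination effect minus the expected value EA + EB − EA·EB, where EA and EB are the effects of each agent alone. Combination Emax is the second-highest inhibition within the matrix. Inhibition was scaled from CellTiter-Glo 2.0 luminescence, with 0 set by vehicle wells and 1 by blank wells, after 72 hours of two-drug dosing of cells plated in 1536-well plates.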
# [2] = system: Daudi (Burkitt's Lymphoma); experiment: combination Emax (second highest fraction inhibited in the dose matrix, 72 h); higher = more inhibition; extreme values may be limits of the assay
# Summary of the method: as §1
# [3] = system: TK (B-Cell Non-Hodgkin's Lymphoma); experiment: as above
# Summary of the method: as §1
# [4] = system: DK-MG (Glioblastoma); experiment: as above
# Summary of the method: as §1
# [5] = system: NCI-H1048 (Small Cell Lung Carcinoma); experiment: as above
# Summary of the method: as §1
# [6] = system: MG-63 (Osteosarcoma); experiment: as above
# Summary of the method: as §1
# [7] = system: NCI-H1648 (Lung Adenocarcinoma); experiment: as above
# Summary of the method: as §1
# [8] = system: BC-1 (B-Cell Non-Hodgkin's Lymphoma); experiment: as above
# Summary of the method: as §1
# [9] = system: ATN-1 (T-Lymphoblastic Leukemia); experiment: as above
# Summary of the method: as §1
# [10] = system: SW1463 (Colorectal Carcinoma); experiment: as above
# Summary of the method: as §1
# [11] = system: JJN-3 (Plasma Cell Myeloma); experiment: as above
# Summary of the method: as §1
# [12] = system: CAL-85-1 (Breast Carcinoma); experiment: as above
# Summary of the method: as §1
# [13] = system: HT-144 (Melanoma); experiment: as above
# Summary of the method: as §1
# [14] = system: RVH-421 (Melanoma); experiment: as above
# Summary of the method: as §1
# [15] = system: C32 (Melanoma); experiment: as above
# Summary of the method: as §1
# [16] = system: NCI-H1944 (Lung Adenocarcinoma); experiment: as above
# Summary of the method: as §1
# [17] = system: SK-MEL-24 (Melanoma); experiment: as above
# Summary of the method: as §1
# [18] = system: SBC-3 (Small Cell Lung Carcinoma); experiment: as above
# Summary of the method: as §1
SMILES,Bliss excess [1],combination Emax [2],combination Emax [3],combination Emax [4],combination Emax [5],combination Emax [6],combination Emax [7],combination Emax [8],combination Emax [9],combination Emax [10],combination Emax [11],combination Emax [12],combination Emax [13],combination Emax [14],combination Emax [15],combination Emax [16],combination Emax [17],combination Emax [18]
"Cc1c2c(nn1C)CSCc1cc(n(C)n1)CSc1cc(c3ccccc3c1)OCCCc1c(C(=O)O)n(C)c3c-2c(Cl)ccc13 [AZD5991] + CC1(C)CCC(CN2CCN(c3ccc(C(=O)NS(=O)(=O)c4ccc(NCC5CCOCC5)c([N+](=O)[O-])c4)c(Oc4cnc5[nH]ccc5c4)c3)CC2)=C(c2ccc(Cl)cc2)C1 [Venetoclax] (first compound max 1 µM, 7x7, partner max 1 µM)",-0.0237,0.258,1,0.613,0.954,0.199,0.748,1,0.968,0.131,1,0.122,0.955,0.358,0.626,0.214,0.336,0.69
"CCN(CCO)CCCOc1ccc2c(Nc3cc(CC(=O)Nc4cccc(F)c4)[nH]n3)ncnc2c1 [AZD2811] + O=C(c1cc(Cc2n[nH]c(=O)c3ccccc23)ccc1F)N1CCN(C(=O)C2CC2)CC1 [Olaparib] (first compound max 1 µM, 7x7, partner max 10 µM)",-0.0685,0.48,0.206,0.258,0.698,0.335,0.233,0.669,0.835,0.226,0.336,0.0869,0.309,0.176,0.232,0.243,0.225,0.617
"CCc1c2c(nc3ccc(O)cc13)-c1cc3c(c(=O)n1C2)COC(=O)[C@]3(O)CC [SN-38] + CN(C)CCCOc1ccc(-c2ccc3ncc4c(c3c2)n(C2CCOCC2)c(=O)n4C)cn1 [AZD0156] (first compound max 0.3 µM, 7x7, partner max 1 µM)",-0.0576,0.95,0.991,0.241,0.968,0.906,0.875,0.979,1,0.634,0.626,0.639,0.753,0.191,0.688,0.686,0.825,0.919
"CN(C)CCCOc1ccc(-c2ccc3ncc4c(c3c2)n(C2CCOCC2)c(=O)n4C)cn1 [AZD0156] + CCN(CCO)CCCOc1ccc2c(Nc3cc(CC(=O)Nc4cccc(F)c4)[nH]n3)ncnc2c1 [AZD2811] (first compound max 1 µM, 7x7, partner max 1 µM)",-0.0626,0.497,0.273,0.204,0.547,0.285,0.214,0.752,0.835,0.108,0.404,0.104,0.232,0.0787,0.14,0.205,0.16,0.409
"CC1(C)CCC(CN2CCN(c3ccc(C(=O)NS(=O)(=O)c4ccc(NCC5CCOCC5)c([N+](=O)[O-])c4)c(Oc4cnc5[nH]ccc5c4)c3)CC2)=C(c2ccc(Cl)cc2)C1 [Venetoclax] + CCN(CCO)CCCOc1ccc2c(Nc3cc(CC(=O)Nc4cccc(F)c4)[nH]n3)ncnc2c1 [AZD2811] (first compound max 1 µM, 7x7, partner max 1 µM)",-0.0636,0.366,1,0.283,0.73,0.23,0.201,0.674,0.866,0.157,0.806,0.156,0.266,0.164,0.385,0.255,0.248,0.766
"COc1cccc2c1C(=O)c1c(O)c3c(c(O)c1C2=O)C[C@@](O)(C(=O)CO)C[C@@H]3O[C@H]1C[C@H](N)[C@H](O)[C@H](C)O1 [Doxorubicin] + Cc1cc2ncnn2cc1Nc1ncc2c(n1)n(C1CCOCC1)c(=O)n2C [AZD7648] (first compound max 1 µM, 7x7, partner max 10 µM)",0.0105,0.956,0.73,0.469,0.933,0.896,0.598,1,0.996,0.196,0.735,0.634,0.583,0.404,0.68,0.625,0.725,0.968
"C[C@@H]1COCCN1c1cc(C2([S@](C)(=N)=O)CC2)nc(-c2ccnc3[nH]ccc23)n1 [AZD6738] + O=C(c1cc(Cc2n[nH]c(=O)c3ccccc23)ccc1F)N1CCN(C(=O)C2CC2)CC1 [Olaparib] (first compound max 10 µM, 7x7, partner max 10 µM)",-0.0324,0.828,0.878,0.316,0.786,0.674,0.689,0.939,1,0.951,0.584,–,0.859,0.215,0.694,0.745,0.551,0.699
"CCc1c2c(nc3ccc(O)cc13)-c1cc3c(c(=O)n1C2)COC(=O)[C@]3(O)CC [SN-38] + O=C(c1cc(Cc2n[nH]c(=O)c3ccccc23)ccc1F)N1CCN(C(=O)C2CC2)CC1 [Olaparib] (first compound max 0.3 µM, 7x7, partner max 10 µM)",-0.0041,0.979,–,0.259,0.987,0.896,0.915,1,1,0.473,0.688,0.702,–,0.265,0.664,0.634,0.775,0.979
"NC1(C(=O)N[C@@H](CCO)c2ccc(Cl)cc2)CCN(c2ncnc3[nH]ccc23)CC1 [Capivasertib] + COc1nnc2ccc(N3CCC(c4ccc(OCCN5CCN(C)C(=O)[C@H]5C)cc4)CC3)nn12 [AZD5153] (first compound max 10 µM, 7x7, partner max 1 µM)",–,0.793,0.387,0.611,0.71,0.86,0.753,0.977,0.654,0.521,0.921,0.434,0.855,–,0.687,0.842,0.885,0.744
"Cn1cnc2c(F)c(Nc3ccc(Br)cc3Cl)c(C(=O)NOCCO)cc21 [Selumetinib] + C=CCn1c(=O)c2cnc(Nc3ccc(N4CCN(C)CC4)cc3)nc2n1-c1cccc(C(C)(C)O)n1 [AZD1775] (first compound max 10 µM, partner max 1 µM)",–,0.662,0.93,0.408,0.862,0.394,0.621,0.993,0.974,0.665,0.67,0.474,0.812,–,0.987,0.706,0.68,0.269
"Cn1cnc2c(F)c(Nc3ccc(Br)cc3Cl)c(C(=O)NOCCO)cc21 [Selumetinib] + CC(C)n1c(=O)n(C)c2cnc3cc(F)c(-c4ccc(OCCCN5CCCCC5)nc4)cc3c21 [AZD1390] (first compound max 10 µM, 7x7, partner max 0.3 µM)",–,0.211,0.177,0.323,0.101,0.305,0.512,0.328,0.172,0.702,0.281,0.44,0.734,–,0.948,0.285,0.495,0.152
"COc1nnc2ccc(N3CCC(c4ccc(OCCN5CCN(C)C(=O)[C@H]5C)cc4)CC3)nn12 [AZD5153] + CC1(C)CCC(CN2CCN(c3ccc(C(=O)NS(=O)(=O)c4ccc(NCC5CCOCC5)c([N+](=O)[O-])c4)c(Oc4cnc5[nH]ccc5c4)c3)CC2)=C(c2ccc(Cl)cc2)C1 [Venetoclax] (first compound max 1 µM, 7x7, partner max 1 µM)",–,0.58,0.994,0.539,0.492,0.646,0.68,0.935,0.516,0.581,0.892,0.674,0.417,–,0.261,0.566,0.474,0.721
"Cn1cnc2c(F)c(Nc3ccc(Br)cc3Cl)c(C(=O)NOCCO)cc21 [Selumetinib] + C[C@@H]1COCCN1C2=NC(=NC(=C2)C3(CC3)[S@](=N)(=O)C)C4=C5C=CNC5=NC=C4 [AZD6738] (first compound max 10 µM, 7x7, partner max 10 µM)",–,0.672,0.909,0.417,0.67,0.547,0.752,0.923,0.97,0.643,0.677,0.559,0.864,–,1,0.879,0.56,0.656
